Measured values published in patent US20040241092A1, “Method for determining alleviation of pain in an animal” (priority 2003, published 2004).

How the values were obtained:
Type in all cases: in vivo
[1] = test system: (IL-6 plus IL-6sR)-induced arthritic pain in rat; assay: IL6 Rat: dose response alleviation of (IL-6 plus IL-6sR)-induced arthritic pain (Method Example 1); settings: oral dose of 10 mg/kg or greater (1, 3, 10, 30 mg/kg tested) 1 hour before 100 ng hrIL-6 + 300 ng hrIL-6sR; measured 1 hour post injection
Text: (§1) Animals were fed standard rat chow with water available ad libitum.
(§2) Each data point is the mean of three readings of 5 seconds duration.

[2] = test system: (IL-6 plus IL-6sR)-induced arthritic pain in rat; assay: IL6 Rat: time course of alleviation of (IL-6 plus IL-6sR)-induced arthritic pain (Method Example 2); settings: 10 mg/kg oral 1 hour before 100 ng hrIL-6 + 300 ng hrIL-6sR; Time 1 and 3 hours post injection
Text: as §1, §2

[3] = test system: rat knee joint; assay: (IL-6)-induced joint pain, hind paw weight bearing differential (Demonstration Example 1); settings: for change in hind paw weight differential compared to the vehicle control group: male Wistar rats
Description: (§3) It should be appreciated that in all of the below examples, unless indicated otherwise, male Wistar rats (175-200 g) were housed in solid bottom isolator cages, 2-4 rats per cage, with corncob bedding on a 12 hour:12 hour light:dark cycle. Animals were fed standard rat chow with water available ad libitum.
It should be appreciated that in all of the below examples, hind paw weight bearing differentials between the paw of the limb having the control joint (in animals administered test compound vehicle only) and the paw of the limb having the contralateral test joint (in control or inducement animals administered test compound vehicle only and in treatment animals administered test compound dissolved in test compound vehicle) were determined using an incapacitance tester, model 2KG (Linton Instrumentation, Norfolk, United Kingdom). The incapacitance tester has a chamber on top with an outwardly sloping front wall that supports a rat's front limbs, and two weight sensing pads, one for each hind paw, that facilitates this determination. Each data point is the mean of three readings of 5 seconds duration. The hind paw weight bearing differentials were expressed in grams and calculated as the [sum of (the weight in grams placed on the control limb minus the weight in grams placed on the contralateral test limb for each animal in the inducement or treatment animal group)] divided by the number of animals in the inducement or treatment animal group. […] All results were statistically analyzed by comparing the average results for an induction or treatment group with the average result for its control group at the same time point using analysis of covariance (“ANCOVA”) followed by the Hochberg's procedure and those with statistical significance had ρ<0.05 unless otherwise noted.
It should also be appreciated that the IL-6 and IL-6sR used as described in all of the below examples was the commercially available recombinant human IL-6 and recombinant human IL-6sR purchased from R&D Systems, Minneapolis, Minn.
It should also be appreciated that prior to injection of hrIL-6, hrIL-6sR, or hrIL-6 plus hrIL-6sR in all of the below examples, rats were anesthetized with 5% volume/volume (“v/v”) isoflurane gas until knocked down and maintained with 2% v/v isoflurane. Rats became fully conscious about 5 minutes after isoflurane administration was discontinued.
Hind-paw weight differentials between the right joint and the left joint of male Wistar rats (150 g) were determined for 30 rats with the incapacitance tester. Rats were then randomly divided into five groups of 6 rats each, a control group and four inducement groups. Rats were anesthetized with 5% v/v isoflurane gas until knocked down and maintained with 2% v/v isoflurane gas. At Time 0, each rat was injected with 50 μL of PBS into a control knee. In addition, each rat in the control group was injected with 50 μL of PBS into the contralateral test knee and each rat in each of the four inducement groups was injected with 50 μL of PBS containing 10 ng, 30 ng, 100 ng, or 300 ng, respectively, of hrIL-6. The injections were done through the patellar ligament into the knee joint space. The isoflurane gas was discontinued. At Times 1, 3, and 6 hours, pain in each rat was characterized by measuring hind paw weight bearing differentials with the incapacitance tester, and the results were statistically analyzed.

[4] = test system: rat knee joint; assay: (IL-6)-, (IL-6sR)-, (IL-6 plus IL-6sR)- and (heat inactivated IL-6 plus IL-6sR)-induced joint pain (Demonstration Example 3); settings: intra-articular in 50 μL PBS, 1 hour post injection
Description: as §3
It should be appreciated that in all of the below examples, hind paw weight bearing differentials between the paw of the limb having the control joint (in animals administered test compound vehicle only) and the paw of the limb having the contralateral test joint (in control or inducement animals administered test compound vehicle only and in treatment animals administered test compound dissolved in test compound vehicle) were determined using an incapacitance tester, model 2KG (Linton Instrumentation, Norfolk, United Kingdom). […] Each data point is the mean of three readings of 5 seconds duration. The hind paw weight bearing differentials were expressed in grams and calculated as the [sum of (the weight in grams placed on the control limb minus the weight in grams placed on the contralateral test limb for each animal in the inducement or treatment animal group)] divided by the number of animals in the inducement or treatment animal group. […]

Q: CS(=O)(=O)c1ccc(C2=C(c3ccccc3)C(=O)OC2)cc1 [rofecoxib] was tested. Which “percent inhibition of a change in hind paw weight distribution, compared to test compound vehicle alone” value [1] did it give?
A: inhibit pain in a statistically significant manner

Q: What about the “change in hind paw weight distribution (pain) compared to test compound vehicle alone” value [2] of the same molecule?
A: reduced pain in a statistically significant manner

Q: “hrIL-6: commercially available recombinant human IL-6 purchased from R&D Systems” was tested. Which “change in hind paw weight differential compared to the vehicle control group” value (“change in hind paw weight differential” for short) ([3]; 10 ng intra-articular in 50 μL PBS, 1, 3, or 6 hours post injection) did it give?
A: did not produce a statistically significant change

Q: And the “change in hind paw weight differential” value ([3]; 30 ng intra-articular in 50 μL PBS, 1 and 3 hours post injection)?
A: statistically significant change

Q: What about the “change in hind paw weight differential” value ([3]; 30 ng intra-articular in 50 μL PBS, 6 hours post injection) of the same molecule?
A: non-significant

Q: What about the “change in hind paw weight differential” value ([3]; 100 ng intra-articular in 50 μL PBS, 1, 3, and 6 hours post injection) of the same molecule?
A: statistically significant change

Q: And the “change in hind paw weight differential” value ([3]; 300 ng intra-articular in 50 μL PBS, 1, 3, and 6 hours post injection)?
A: statistically significant change

Q: What about the “amount that will induce pain in the joint on intra-articular injection” value ([3]; hrIL-6 only, rat knee joint) of the same molecule?
A: more than 10 ng

Q: And the “induction of pain in the joint (hind paw weight distribution)” value ([4]; 100 ng alone)?
A: will induce pain

B1: hrIL-6sR: commercially available recombinant human IL-6sR (interleukin-6 soluble receptor) purchased from R&D Systems (protein, UniProt P08887 20-365, looked up)
extracellular domain: LAPRRCPAQEVARGVLTSLPGDSVTLTCPGVEPEDNATVHWVLRKPAAGSHPSRWAGMGRRLLLRSVQLHDSGNYSCYRAGRPAGTVHLLVDVPPEEPQLSCFRKSPLSNVVCEWGPRSTPSLTTKAVLLVRKFQNSPAEDFQEPCQYSQESQKFSCQLAVPEGDSSFYIVSMCVASSVGSKFSKTQTFQGCGILQPDPPANITVTAVARNPRWLSVTWQDPHSWNSSFYRLRFELRYRAERSKTFTTWMVKDLQHHCVIHDAWSGLRHVVQLRAQEEFGQGEWSEWSPEAMGTPWTESRSPPAENEVSTPMQALTTNKDDDNILFRDSANATSLPVQDSSSVPLP
modifications: extracellular domain
notes: commercially available recombinant human IL-6sR (interleukin-6 soluble receptor) purchased from R&D Systems
Q: Which “induction of pain in the joint (hind paw weight distribution)” value ([4]; 300 ng alone) does the source give for B1 here?
A: will induce pain
